{"source": "patent US10506810B2", "about": "“Synergistic herbicidal composition” (QINGDAO KINGAGROOT RESISTANT WEED MANAGEMENT CO., LTD., priority 2015, dated 2019)", "test_in_all_cases": "pot-culture method, stem and leaf treatment in greenhouse, fresh weight inhibition rate 20 days after treatment (Gowing method)", "type_in_all_cases": "in vivo", "key": {"[1]": {"system": "Capsella bursa-pastoris", "protocol": "(§1) Capsella bursa-pastoris, Myosoton aquaticum, Alopecurus japonicus were collected from corn fields in Huangdao Experimental Base of Shandong Province.\n(§2) The above weeds were cultivated by a pot culture method. […] Full and uniform weed seeds were selected, soaked in warm water at 25° C. for 6 hours, and germinated in a 28° C. biochemical incubator (darkness). […] A certain amount of water was added to the enamel pan regularly to keep the soil moist.\n(§3) The technical materials were all dissolved in acetone, and diluted with an aqueous solution containing 0.1% emulsifier T-80. The dilution is performed as required.\n(§4) A ratio of the active ingredient A to the active ingredient B and amounts thereof in each group depends on the characteristics and toxicity of the two agents, as well as the main application purpose of a corresponding formulation. Based on the pre-tests in this study, the dosage of the active ingredient A and the active ingredient B applied alone and in combination were shown in the tables, and a total 15 groups were designed. Water containing the solvent and emulsifier same with the above groups but free of the agents was used as a blank control.\n(§5) 3 pots with 20 weed seeds per pot were treated in one treatment with […] per treatment, that is, a total of 60 weeds were treated in one treatment.\n(§6) The agents were used for only once in the experiment. In the stage of weeds with 2 leaves and 1 core, the weeds were thinned out to maintain 15 weeds per pot and 45 weeds for each treatment, then continued to be cultured to 3-5-leaves stage of Capsella bursa-pastoris and Myosoton aquaticum, and 3-leaves and 1-core stage of Alopecurus japonicus, and treated.\n(§7) The well-cultured weeds were evenly placed on a platform with an area of 0.5 m^2, and a solution of agents was sprayed on the stems and leaves thereof by the 3WP-2000-type walking spray tower at a dosage of 30 kg/ha and at a spray pressure of 0.3 MPa. After all the solution was sprayed, the valve was closed. After 30 seconds, the door of the spray tower was opened, and the nutritional bowl was taken out. Then the valve was opened, and the spray tube was cleaned by spraying 50 ml of water.\n(§8) A pot-culture method was employed. For the cultivation of weeds, please refer to the Section 1.2, and “Pesticide guidelines for laboratory bioactivity tests—herbicides”. As to a method for applying agents, please refer to the section 2.3.2, that is, a method for treating stems and leaves was employed.\n(§9) A method for investigating absolute number was employed, wherein whole seedlings of survival weeds were cut off with a blade along the soil surface, and the fresh weight of the weeds was weighed with an analytical balance. For dead weeds, the fresh weight thereof was zero.\n(§10) The investigation was performed after 20 days of the treatment for only once.\n(§11) Wherein, in the formula, X represented the fresh weight inhibition rate of the active ingredient A in a dosage of P, and Y represented the fresh weight inhibition rate of the active ingredient B in a dosage of Q."}, "[2]": {"system": "Alopecurus japonicus", "protocol": "as §1, §2, §3, §4, §5, §6, §7, §8, §9, §10, §11"}, "[3]": {"system": "Myosoton aquaticum", "protocol": "as §1, §2, §3, §4, §5, §6, §7, §8, §9, §10, §11"}, "[4]": {"details": "Capsella bursa-pastoris, 480 h, read-out: actual fresh weight inhibition rate"}}, "data": [{"molecule": "COC(=O)c1ccc(CNS(C)(=O)=O)cc1S(=O)(=O)NC(=O)Nc1nc(OC)cc(OC)n1", "note": "[mesosulfuron-methyl]", "values": [{"measurement": "actual fresh weight inhibition rate", "setting": "[1]; dosage 6 g/hm^2", "result": 24.5, "unit": "%"}, {"measurement": "actual fresh weight inhibition rate", "setting": "[1]; dosage 9 g/hm^2", "result": 37.6, "unit": "%"}, {"measurement": "actual fresh weight inhibition rate", "setting": "[1]; dosage 12 g/hm^2", "result": 63.4, "unit": "%"}, {"measurement": "actual fresh weight inhibition rate", "setting": "[2]; dosage 6 g/hm^2", "result": 67.9, "unit": "%"}, {"measurement": "actual fresh weight inhibition rate", "setting": "[2]; dosage 9 g/hm^2", "result": 73.2, "unit": "%"}, {"measurement": "actual fresh weight inhibition rate", "setting": "[2]; dosage 12 g/hm^2", "result": 88.9, "unit": "%"}]}, {"molecule": "CSc1nnc(C(C)(C)C)c(=O)n1N", "note": "[metribuzin, reference compound]", "values": [{"measurement": "actual fresh weight inhibition rate (%)", "setting": "[3]; dosage 13.5 g/hm^2", "result": 42.1, "unit": "%"}, {"measurement": "actual fresh weight inhibition rate (%)", "setting": "[3]; dosage 25 g/hm^2", "result": 52.9, "unit": "%"}, {"measurement": "actual fresh weight inhibition rate (%)", "setting": "[3]; dosage 36.5 g/hm^2", "result": 58.5, "unit": "%"}, {"measurement": "actual fresh weight inhibition rate (%)", "setting": "[1]; dosage 13.5 g/hm^2", "result": 55.6, "unit": "%"}, {"measurement": "actual fresh weight inhibition rate (%)", "setting": "[1]; dosage 25 g/hm^2", "result": 64.1, "unit": "%"}, {"measurement": "actual fresh weight inhibition rate (%)", "setting": "[1]; dosage 36.5 g/hm^2", "result": 82.3, "unit": "%"}]}, {"molecule": "O=C(Nc1ccc(F)cc1)c1cccc(Oc2cccc(C(F)(F)F)c2)n1", "note": "[picolinafen]", "values": [{"measurement": "actual fresh weight inhibition rate", "setting": "[3]; Myosoton aquaticum, 40 g/hm^2", "result": 14.5, "unit": "%"}, {"measurement": "actual fresh weight inhibition rate", "setting": "[3]; Myosoton aquaticum, 80 g/hm^2", "result": 34.9, "unit": "%"}, {"measurement": "actual fresh weight inhibition rate", "setting": "[3]; Myosoton aquaticum, 120 g/hm^2", "result": 50.5, "unit": "%"}, {"measurement": "actual fresh weight inhibition rate", "setting": "[1]; Capsella bursa-pastoris, 40 g/hm^2", "result": 16.4, "unit": "%"}, {"measurement": "actual fresh weight inhibition rate", "setting": "[1]; Capsella bursa-pastoris, 80 g/hm^2", "result": 33.2, "unit": "%"}, {"measurement": "actual fresh weight inhibition rate", "setting": "[1]; Capsella bursa-pastoris, 120 g/hm^2", "result": 55.6, "unit": "%"}]}, {"molecule": "CCc1cc(C)cc(CC)c1-c1c(OC(=O)C(C)(C)C)n2n(c1=O)CCOCC2", "note": "[pinoxaden]", "values": [{"measurement": "pest or weed control at 60 g/ha", "setting": "[1]; Capsella bursa-pastoris, 480 h, dosage 60 g/hm^2, read-out: actual fresh weight inhibition rate", "result": 0, "unit": "%"}, {"measurement": "pest or weed control at 80 g/ha", "setting": "[1]; Capsella bursa-pastoris, 480 h, dosage 80 g/hm^2, read-out: actual fresh weight inhibition rate", "result": 0, "unit": "%"}, {"measurement": "pest or weed control at 120 g/ha", "setting": "[1]; Capsella bursa-pastoris, 480 h, dosage 120 g/hm^2, read-out: actual fresh weight inhibition rate", "result": 0, "unit": "%"}, {"measurement": "actual fresh weight inhibition rate", "setting": "[2]; dosage 60 g/hm^2", "result": 69.2, "unit": "%"}, {"measurement": "actual fresh weight inhibition rate", "setting": "[2]; dosage 80 g/hm^2", "result": 78.6, "unit": "%"}, {"measurement": "actual fresh weight inhibition rate", "setting": "[2]; dosage 120 g/hm^2", "result": 85.2, "unit": "%"}]}, {"molecule": "CSc1nc(NC(C)C)nc(NC(C)C)n1", "note": "[prometryn]", "values": [{"measurement": "pest or weed control at 150 g/ha", "setting": "[3]; Myosoton aquaticum, 480 h, Myosoton aquaticum, 150 g/hm^2, read-out: actual fresh weight inhibition rate", "result": 22.6, "unit": "%"}, {"measurement": "pest or weed control at 450 g/ha", "setting": "[3]; Myosoton aquaticum, 480 h, Myosoton aquaticum, 450 g/hm^2, read-out: actual fresh weight inhibition rate", "result": 33.7, "unit": "%"}, {"measurement": "pest or weed control at 750 g/ha", "setting": "[3]; Myosoton aquaticum, 480 h, Myosoton aquaticum, 750 g/hm^2, read-out: actual fresh weight inhibition rate", "result": 45.2, "unit": "%"}, {"measurement": "pest or weed control at 150 g/ha", "setting": "[1]; 480 h, Capsella bursa-pastoris, 150 g/hm^2, read-out: actual fresh weight inhibition rate", "result": 20.4, "unit": "%"}, {"measurement": "pest or weed control at 450 g/ha", "setting": "[1]; 480 h, Capsella bursa-pastoris, 450 g/hm^2, read-out: actual fresh weight inhibition rate", "result": 29.6, "unit": "%"}, {"measurement": "pest or weed control at 750 g/ha", "setting": "[1]; 480 h, Capsella bursa-pastoris, 750 g/hm^2, read-out: actual fresh weight inhibition rate", "result": 45.7, "unit": "%"}]}, {"molecule": "COc1cc(OC)n2nc(NS(=O)(=O)c3c(C(F)(F)F)ccnc3OC)nc2n1", "note": "[pyroxsulam]", "values": [{"measurement": "actual fresh weight inhibition rate", "setting": "[1]; dosage 5 g/hm^2", "result": 19.4, "unit": "%"}, {"measurement": "actual fresh weight inhibition rate", "setting": "[1]; dosage 10 g/hm^2", "result": 31.7, "unit": "%"}, {"measurement": "actual fresh weight inhibition rate", "setting": "[1]; dosage 15 g/hm^2", "result": 55.6, "unit": "%"}, {"measurement": "actual fresh weight inhibition rate", "setting": "[2]; dosage 5 g/hm^2", "result": 63.5, "unit": "%"}, {"measurement": "actual fresh weight inhibition rate", "setting": "[2]; dosage 10 g/hm^2", "result": 81.9, "unit": "%"}, {"measurement": "actual fresh weight inhibition rate", "setting": "[2]; dosage 15 g/hm^2", "result": 91.5, "unit": "%"}]}, {"molecule": "CCNc1nc(NC(C)(C)C)nc(SC)n1", "note": "[terbutryn]", "values": [{"measurement": "pest or weed control at 125 g/ha", "setting": "[3]; Myosoton aquaticum, 480 h, Myosoton aquaticum, 125 g/hm^2, read-out: actual fresh weight inhibition rate", "result": 13.4, "unit": "%"}, {"measurement": "pest or weed control at 275 g/ha", "setting": "[3]; Myosoton aquaticum, 480 h, Myosoton aquaticum, 275 g/hm^2, read-out: actual fresh weight inhibition rate", "result": 29.3, "unit": "%"}, {"measurement": "pest or weed control at 425 g/ha", "setting": "[3]; Myosoton aquaticum, 480 h, Myosoton aquaticum, 425 g/hm^2, read-out: actual fresh weight inhibition rate", "result": 33.9, "unit": "%"}, {"measurement": "pest or weed control at 125 g/ha", "setting": "[1]; 480 h, Capsella bursa-pastoris, 125 g/hm^2, read-out: actual fresh weight inhibition rate", "result": 15.4, "unit": "%"}, {"measurement": "pest or weed control at 275 g/ha", "setting": "[1]; 480 h, Capsella bursa-pastoris, 275 g/hm^2, read-out: actual fresh weight inhibition rate", "result": 25.3, "unit": "%"}, {"measurement": "pest or weed control at 425 g/ha", "setting": "[1]; 480 h, Capsella bursa-pastoris, 425 g/hm^2, read-out: actual fresh weight inhibition rate", "result": 40.9, "unit": "%"}]}, {"molecule": "CCO/N=C(\\CC)C1=C(O)CC(c2c(C)cc(C)cc2C)CC1=O", "note": "(stereo not drawn) [tralkoxydim]", "values": [{"measurement": "pest or weed control at 240 g/ha", "setting": "[1]; [4]", "result": 0, "unit": "%"}, {"measurement": "pest or weed control at 360 g/ha", "setting": "[1]; [4]", "result": 0, "unit": "%"}, {"measurement": "pest or weed control at 480 g/ha", "setting": "[1]; [4]", "result": 0, "unit": "%"}, {"measurement": "actual fresh weight inhibition rate", "setting": "[2]; Alopecurus japonicus, 240 g/hm^2", "result": 74.5, "unit": "%"}, {"measurement": "actual fresh weight inhibition rate", "setting": "[2]; Alopecurus japonicus, 360 g/hm^2", "result": 81.2, "unit": "%"}, {"measurement": "actual fresh weight inhibition rate", "setting": "[2]; Alopecurus japonicus, 480 g/hm^2", "result": 89.8, "unit": "%"}]}, {"molecule": "dimethylammonium 4-chloro-o-tolyloxyacetate [MCPA-dimethylammonium, reference compound]", "values": [{"measurement": "actual fresh weight inhibition rate (%)", "setting": "[3]; dosage 550 g/hm^2", "result": 26.7, "unit": "%"}, {"measurement": "actual fresh weight inhibition rate (%)", "setting": "[3]; dosage 950 g/hm^2", "result": 33.1, "unit": "%"}, {"measurement": "actual fresh weight inhibition rate (%)", "setting": "[3]; dosage 1350 g/hm^2", "result": 47.2, "unit": "%"}, {"measurement": "actual fresh weight inhibition rate (%)", "setting": "[1]; dosage 550 g/hm^2", "result": 29.2, "unit": "%"}, {"measurement": "actual fresh weight inhibition rate (%)", "setting": "[1]; dosage 950 g/hm^2", "result": 43.6, "unit": "%"}, {"measurement": "actual fresh weight inhibition rate (%)", "setting": "[1]; dosage 1350 g/hm^2", "result": 59.2, "unit": "%"}]}]}
